Measured values as given in ChEMBL document CHEMBL6182859, “Synthesis of Thioloformate-Containing Lathyrane Diterpene Derivates via a [3,3] Sigmatropic Rearrangement and Their Anti-HIV Activity” (J Nat Prod, 2025).

Assays:
[1] = Cytotoxicity against human MT4 cells assessed as reduction in cell viability measured after 4 days by CellTiter 96 Aqueous One Solution Cell Proliferation Assay; format: toxicity, cell-based; conditions: time 4 day
[2] = system: Human immunodeficiency virus 1; experiment: Anti-HIV activity against HIV-1 NL 4.3 infected in human MT4 cells assessed as inhibition of virus-induced cytopathicity measured after 4 days by CellTiter 96 Aqueous One Solution Cell Proliferation Assay; format: functional, organism-based; conditions: Human immunodeficiency virus 1, NL 4.3, MT4, 96 h
[3] = system: Human immunodeficiency virus 2; experiment: Anti-HIV activity against HIV-2 ROD infected in human MT4 cells assessed as inhibition of virus-induced cytopathicity measured after 4 days by CellTiter 96 Aqueous One Solution Cell Proliferation Assay; format: functional, organism-based; conditions: Human immunodeficiency virus 2, ROD, MT4, 96 h
[4] = Selectivity index, ratio of CC50 for cytotoxicity against human MT4 cells to EC50 for antiviral activity against HIV-2 ROD infected in human MT4 cells; format: toxicity, cell-based; conditions: read-out: Ratio CC50/EC50
[5] = Selectivity index, ratio of CC50 for cytotoxicity against human MT4 cells to EC50 for antiviral activity against HIV-1 NL 4.3 infected in human MT4 cells; format: toxicity, cell-based; conditions: read-out: Ratio CC50/EC50

## C/C1=C\[C@@H]2[C@H](CC/C(CSC(=O)Oc3ccc(F)cc3)=C\C3[C@@H](O)[C@@H](C)C[C@]3(O)C1=O)C2(C)C (some centres undefined)
[1]
  CC50 at 96 h: 45.2 µM
[2]
  EC50: > 45.2 µM
[3]
  EC50: > 45.2 µM

## C/C1=C\[C@@H]2[C@H](CC/C(CSC(=O)Oc3ccccc3Br)=C\C3[C@@H](O)[C@@H](C)C[C@]3(O)C1=O)C2(C)C (some centres undefined)
[1]
  CC50 at 96 h: 45.2 µM
[2]
  EC50: > 45.2 µM
[3]
  EC50: > 45.2 µM

## COc1ccc(OC(=O)SC/C2=C/C3[C@@H](O)[C@@H](C)C[C@]3(O)C(=O)/C(C)=C/[C@@H]3[C@H](CC2)C3(C)C)cc1 (some centres undefined)
[1]
  CC50 at 96 h: 47.4 µM
[2]
  EC50: > 47.4 µM
[3]
  EC50: > 47.4 µM

## C/C1=C\[C@@H]2[C@H](CC/C(CSC(=O)Oc3cc(F)cc(F)c3)=C\C3[C@@H](O)[C@@H](C)C[C@]3(O)C1=O)C2(C)C (some centres undefined)
[1]
  CC50 at 96 h: 45 µM
[2]
  EC50: > 45 µM
[3]
  EC50: > 45 µM

## C/C1=C\[C@@H]2[C@H](CC/C(CSC(=O)Oc3ccc(Cl)cc3)=C\C3[C@@H](O)[C@@H](C)C[C@]3(O)C1=O)C2(C)C (some centres undefined)
[1]
  CC50 at 96 h: 45.4 µM
[2]
  EC50: > 45.4 µM
[3]
  EC50: > 45.4 µM

## C/C1=C\[C@@H]2[C@H](CC/C(CSC(=O)Oc3ccccc3)=C\C3[C@@H](O)[C@@H](C)C[C@]3(O)C1=O)C2(C)C (some centres undefined)
[1]
  CC50 at 96 h: 13.1 µM
[2]
  EC50: > 13.1 µM
[3]
  EC50: 13.1 µM

## C/C1=C\[C@@H]2[C@H](CC/C(CSC(=O)Oc3ccc(C)cc3)=C\C3[C@@H](O)[C@@H](C)C[C@]3(O)C1=O)C2(C)C (some centres undefined)
[4]
  selectivity ratio: > 6.8
[1]
  CC50 at 96 h: 45.1 µM
[2]
  EC50: 11.3 µM
[3]
  EC50: 6.6 µM
[5]
  selectivity ratio: > 4

## C=C1CC[C@H]2[C@@H](/C=C(\C)C(=O)[C@@]3(OC(C)=O)C[C@H](C)[C@H](OC(=O)c4ccccc4)C3[C@H]1OC(C)=O)C2(C)C (some centres undefined)
[1]
  CC50 at 96 h: > 100 µM
[2]
  EC50: > 100 µM
[3]
  EC50: > 100 µM

## C/C1=C\[C@@H]2[C@H](CC/C(CSC(=O)Oc3c(C)cccc3C)=C\C3[C@@H](O)[C@@H](C)C[C@]3(O)C1=O)C2(C)C (some centres undefined)
[1]
  CC50 at 96 h: > 100 µM
[2]
  EC50: > 100 µM
[3]
  EC50: > 100 µM
